Results: patent US20150124259A1, “Method For Biodynamic Spectroscope Imaging” (Purdue Research Foundation, priority 2013, published 2015)

Key:
Type in all cases: cell-based
[1] = test system: ex vivo biopsy sample of canine multicentric B-cell lymphoma; experiment: BSI of drug response of ex vivo biopsy sample; conditions: two-color pixel map
Source text: An additional example of BSI is shown in FIG. 18 for an ex vivo biopsy sample of canine multicentric B-cell lymphoma. […] This signature is coded in green in the BSI image. The other spectral signature had low-frequency enhancement and high-frequency suppression, which is coded as red in the BSI image. […] This ex vivo biopsy is responding to the anticancer drug doxorubicin.

DLD-1 tumor spheroid = experiment: BSI imaging of tumor heterogeneity of drug response in DLD-1 tumor spheroid
Source text: In a previous co-pending application Ser. No. 13/760,827, entitled “System and Method for Determining Modified States of Health of Living Tissue”, filed on Feb. 6, 2013, and published as Pub. No. 2013/0144151 (the '151 application), the entire disclosure of which is incorporated herein by reference, a method is described that uses time-frequency masks to extract feature vectors. Multiple masks are used to create feature vectors that are then used to classify a drug response. In accordance with the present disclosure, the BSI techniques described herein can use the same or similar time-frequency masks to capture different mechanisms related to the drug action, and then perform the analysis on a per-pixel basis to generate “hyperspectral” maps of the tumor response to drugs. Because the signal-to-noise of single-pixel power spectra for biodynamic spectroscopic imaging (BSI) is not as large as for tissue dynamics spectroscopy (TDS) that averages over many pixels, it is necessary to modify the time-frequency mask from that described in the '151 application. The time-frequency spectral power density is given by S(ω,T). This power spectrum typically has a power-law decay at higher frequencies, with several orders of magnitude in vertical dynamic range. […]

tumor spheroids (UMR106) = experiment: Biodynamic spectroscopic imaging (BSI) of mitosis events in tumor spheroids, single-band thresholding (Taxol treatment)
Source text: The mitosis phase has its own fingerprint because mitosis is one of the most dramatic events in a cell's life. However compared to the dynamic speckle from an entire tumor spheroid, the signal of the mitosis of a single cell is very weak. The statistical TDS technique is not able to show the mitosis events of single cells. On the other hand, BSI may be applied to generate a voxel based microspectrograms. In the current TDS system, the transverse and longitudinal resolution are 9 μm and 18 μm, and the typical size of UMR106 cell in tumor spheroid is about 10 um. Therefore, on the reconstructed image, each pixel contains about 4 cells. However the spectrum of a single pixel is too noisy to perform analysis, so 2×2 pixels can be preferably used as the balance point to calculate the spectra of the voxels. Thus, according to one aspect of the BSI method disclosed herein, the 3D image is reconstructed as voxels, rather than pixels, in which a voxel includes 2×2 pixels. The microspectrograms are then generated for each voxel, rather than pixel, which substantially eliminates the effect of noise in the image.
Therefore, for a single voxel, the normalized spectra from five datasets (20 mins) can be averaged together, with no risk of “missing” a biological event of the cell. By combining these normalized spectra together, the micro (voxel) spectrograms are generated. The baseline is the averaged spectrum over the entire tissue when it is only surrounded by growth medium. During the entire experimental period, each voxel corresponds to one spectrogram. A frequency vs. time fluctuation spectral response image of the tumor spheroid is constructed.
The frequency range is picked at a mid-high frequency band (0.52 Hz to 1 Hz, marked as a box in FIG. 7) and enhancement is picked as the finger print of the mitosis. The enhancement in this frequency range indicates both cell membrane undulation and cell organelle motion during mitosis. […] The prior approach discussed above referred to single-band thresholding that used the third case baseline described above as essentially a pixel-based TDS. This pixel-based TDS approach fails to isolate mitosis from other biological processes and to isolate mitosis from noise. Therefore, single-band thresholding only correctly acquires mitosis information when using the first or second case baselines described above.
Paclitaxel is a mitotic inhibitor used as an anti-cancer drug. It can stabilize microtubules so that cell division during mitosis can be interrupted. Experiments were performed using 2 concentrations of Paclitaxel: 1 μg/ml and 10 μg/ml. The tumor spheroids in these experiments were 430 μm diameter (1 μg/ml) and 410 μm diameter (10 μg/ml). The baselines were taken as described above. After 40 minutes, the original growth medium was replaced by medium with Paclitaxel. The data was collected for six hours, and the resulting macrospectrograms of the experiments are shown in FIG. 9b for 1 μg/ml and FIG. 9c for 10 μg/ml.
The thresholding used in this example is based on the single-band method using the first case baseline described above that averages the baseline over all pixels for all times. […] Each light speckle in each image represents a mitosis event. […] The mitosis events depicted in the BSI images of FIG. 10 are quantified in the graph of FIG. 11. The y-axis of the graph is the density of the voxels which are in the mitosis phase expressed as a fraction of the mitotic voxels to the total number of voxels for the underlying image. […]

Compound: COc1cccc2c1C(=O)c1c(O)c3c(c(O)c1C2=O)C[C@@](O)(C(=O)CO)C[C@@H]3O[C@H]1C[C@H](N)[C@H](O)[C@H](C)O1 [doxorubicin]
- BSI spectral responses of tissue to drug (FIG. 18) [1]: two very different spectral responses

Compound: CNC(=O)c1cc(Oc2ccc(NC(=O)Nc3ccc(Cl)c(C(F)(F)F)c3)cc2)ccn1 [Sorafenib]
- homogeneity of the response across the specimen (FIGS. 16c, 17) (DLD-1 tumor spheroid; BSI image and classification map): majority of the specimen is unaffected or only slightly affected
- BSI spectral response to drug, spatial distribution (FIG. 16c) (DLD-1 tumor spheroid; spheroid approximately 600 microns in diameter, periphery vs interior): highest magnitude in the proliferating shell, with low (dark) response internal to the tumor

Compound: CC(=O)O[C@H]1C(=O)[C@@]2(C)[C@H]([C@H](OC(=O)c3ccccc3)[C@]3(O)C[C@H](OC(=O)[C@H](O)[C@@H](NC(=O)c4ccccc4)c4ccccc4)C(C)=C1C3(C)C)[C@]1(OC(C)=O)CO[C@@H]1C[C@@H]2O [Paclitaxel]
- mitotic events, fraction of mitotic voxels to total voxels over time (FIG. 11) (tumor spheroids (UMR106); 1 μg/ml, 430 μm diameter spheroid, compared with negative controls): fewer mitotic events and decayed faster
- mitosis remaining after drug application (FIG. 11) (tumor spheroids (UMR106); 1 μg/ml, six hours after applying): still slight mitosis
- mitotic events, fraction of mitotic voxels to total voxels over time (FIG. 11) (tumor spheroids (UMR106); 410 μm diameter spheroid): decayed the fastest
- mitosis activity inside the tumor spheroids (BSI images, FIG. 10) (tumor spheroids (UMR106); Taxol treated vs untreated, single-band threshold 0.52-1.0 Hz, nearly six hours): significantly reduced
- mitosis remaining after drug application (FIG. 11) (tumor spheroids (UMR106); two hours after applying the drug): almost no mitosis at all
